The values that follow come from US10064873B2, “Compounds and compositions for treating HIV with derivatives of Betulin” (GlaxoSmithKline LLC, priority 2011, dated 2018).

Read-outs that look alike come from different tables or passages of the source. Bounds are passed on as bounds.

The subject of one data set is HIV-1 (strain IIIB). The data set can be described thus: MT4 Cell Antiviral Assay (propidium iodide or MTS readout). In kind it is cell-based. As to conditions: Human immunodeficiency virus 1, IIIB, read-out: expected range of IC50 values (control and standard).
Another data set deals with HIV NL4-3 wt. The data set can be described thus: MT4 antiviral assay, NL4-3 strain wild type. The data set is classed as cell-based, HIV-1.
Data set [1] concerns NL4-3 strain with V370A site directed mutant polymorphism. Put plainly: MT4 antiviral assay, NL4-3 strain with V370A site directed mutant polymorphism. In kind it is cell-based, HIV-1. Particulars: Human immunodeficiency virus 1, NL43, MT4 cells.
For data set [2], the system named is HIV. Put plainly: Standard PBMC assay (0% human serum). In kind it is cell-based. As to conditions: Human immunodeficiency virus 1, PBMC, 168 h, PBMCs, 7 days.
Protocol: Following incubation in both the standard and modified assays, supernatants were assayed for reverse transcriptase (RT) activity and p24 antigen content by ELISA and spectrophotometric analysis at 450 nM.
The test system of another data set is HIV-1 strain JR-CSF. The data set can be described thus: Modified PBMC (PBL) assay with human serum titration. The data set is classed as cell-based. As to conditions: for IC50: Human immunodeficiency virus 1, PBMC. Here is the method: In this assay, 8×10^6 cells from pooled donors were incubated with virus for 1 hour, followed by centrifugation for 1 hour. Cells were then gently re-suspended and incubated an additional 2 hours.

The test system of data set [3] is HIV. Particulars: cited from earlier work.
Where [4] appears, read: Human immunodeficiency virus 1, NL43, MT4, read-out: EC50 NL4-3 wt (nM).

By IC50 is commonly meant the concentration at which inhibition is half-maximal. Consider `Cc1cn([C@H]2C[C@H](N=[N+]=[N-])[C@@H](CO)O2)c(=O)[nH]c1=O` [3′-azido-3′-deoxythymidine], for which the IC50 with HIV-1 (strain IIIB) fell in the range of 40 to 120 nM.
As to `C=C(C)[C@@H]1CC[C@]2(C(=O)O)CC[C@]3(C)[C@H](CC[C@@H]4[C@@]5(C)CC[C@H](OC(=O)CC(C)(C)C(=O)O)C(C)(C)[C@@H]5CC[C@]43C)[C@@H]12` [Bevirimat], the EC50 amounted to 223 nM in the data set on HIV NL4-3 wt (Human immunodeficiency virus 1, NL43, MT4 cells, Consensus Clade B Sp1 Genotype, read-out: MT4 NL. wt* EC50); 223 nM in the data set with HIV NL4-3 wt (Human immunodeficiency virus 1, NL43, MT4 cells, read-out: EC50, MT4 antiviral assay NL4-3 strain / HIV wild type potency); 6060 nM in data set [1] (read-out: EC50, MT4 antiviral assay NL4-3 strain with V370A polymorphism); 6060 nM in data set [1] (read-out: MT4 NL. V370A EC50). Moreover, the IC50 with HIV [2] is 9.76 nM; with HIV-1 strain JR-CSF (10%, 20%, 30% and 40% human serum, unit mM, read-out: IC50 in the presence of human serum), 1380 to 13000 nM. Further, the “effect of human serum on IC50 values” with HIV-1 strain JR-CSF (10-40% human serum vs standard assay) is on record as “large increase in the IC50 values”. For the same compound, in the data set on HIV-1 strain JR-CSF (extrapolated, compared to control experiment), the “fold change in the IC50 value in the presence of 100% serum” value was 2,310 fold. Also, the Cmin target in the data set on HIV [3] (clinical, McCallister et al. poster 2008) was above 20000 ng/mL. Besides, in the data set with HIV [3] (patients with trough levels >=20 μg/mL and no baseline Gag polymorphisms at Q369, V370 or T371), the “mean reduction of HIV viral load” value is reported as 1.3 log10/mL.
Regarding `CC(C)C1=C2[C@H]3CC[C@@H]4[C@@]5(C)CC[C@H](OC(=O)CC(C)(C)C(=O)O)C(C)(C)[C@@H]5CC[C@@]4(C)[C@]3(C)CC[C@@]2([C@@H](O)CN(CCN(C)C)Cc2ccc(Cl)cc2)CC1=O` [Compound 51, 4-(((3aR,5aR,5bR,7aR,9S,11aR,11bR,13aS)-3a-((R)-2-((4-Chlorobenzyl)(2-(dimethylamino)ethyl)amino)-1-hydroxyethyl)-1-isopropyl-5a,5b,8,8,11a-pentamethyl-2-oxo-3,3a,4,5,5a,5b,6,7,7a,8,9,10,11,11a,11b,12,13,13a-octadecahydro-2H-cyclopenta[a]chrysen-9-yl)oxy)-2,2-dimethyl-4-oxobutanoic acid], the concentration for half-maximal inhibition (IC50) was 0.33 nM in the data set on HIV-1 strain JR-CSF (read-out: estimated IC50 for 100% human serum, linear extrapolation from normalized IC50 values); 0.52 to 3.07 nM with HIV-1 strain JR-CSF (10%, 20%, 30% and 40% human serum, read-out: IC50 in the presence of human serum).
With `CC(C)C1=C2[C@H]3CC[C@@H]4[C@@]5(C)CC[C@H](OC(=O)CC(C)(C)C(=O)O)C(C)(C)[C@@H]5CC[C@@]4(C)[C@]3(C)CC[C@@]2(CCNCc2ccccc2Cl)CC1=O` [Example 82, 4-{[(1R,2R,5R,10S,13R,14R, 17S,19R)-5-(2-{[(2-chlorophenyl)methyl]amino}ethyl)-1,2,14,18,18-pentamethyl-7-oxo-8-(propan-2-yl)pentacyclo[11.8.0.0^ {2,10}.0^{5,9}.0^{14,19}]henicos-8-en-17-yl]oxy}-2,2-dimethyl-4-oxobutanoic acid], the EC50 with HIV NL4-3 wt (setting [4]) amounted to 8.9 nM.
Consider `CC(C)C1=C2[C@H]3CC[C@@H]4[C@@]5(C)CC[C@H](OC(=O)CC(C)(C)C(=O)O)C(C)(C)[C@@H]5CC[C@@]4(C)[C@]3(C)CC[C@@]2(CCNC(=O)c2ccccc2)CC1=O` [Example 83, 2,2-dimethyl-4-oxo-4-{[(1R,2R,5R,10S,13R,14R, 17S,19R)-1,2,14,18,18-pentamethyl-7-oxo-5-[2-(phenylformamido)ethyl]-8-(propan-2-yl)pentacyclo[11.8.0.0^ {2,10}.0^{5,9}.0^{14,19}]henicos-8-en-17-yl]oxy)butanoic acid], for which, in the data set with HIV NL4-3 wt (setting [4]), the EC50 amounted to 7.3 nM.
